Laboratory results from ChEMBL document CHEMBL1143226, “Potent inhibitors of the hedgehog signaling pathway” (J Med Chem, 2008).
pIC50: −log10 of the molar value.

Experiment: Antagonist activity at Hedgehog receptor expressed in 10t1/2 cells by Gli-luciferase reporter gene assay
Format: functional, cell-based

| Compound | pIC50 |
| --- | --- |
| CC(NC(=O)Nc1cccc(C(F)(F)F)c1)c1nc2ccccc2c(=O)n1-c1ccc(F)cc1 (stereo not given) | 5.33 |
| CC(C)n1c(CNC(=O)Nc2cccc(C(F)(F)F)c2)nc2ccccc2c1=O | 5.37 |
| CCc1nc2ccccc2c(=O)n1-c1ccc(F)cc1 | < 5.00 |
| O=C(NCc1nc2ccccc2c(=O)n1-c1ccc(F)cc1)Nc1ccc(Cl)c(C(F)(F)F)c1 | 7.15 |
| O=C(NCc1nc2ccccc2c(=O)n1-c1ccc(F)cc1)Nc1cccc(C(F)(F)F)c1 | 6.15 |
| COc1cc(NC(=O)NCc2nc3ccccc3c(=O)n2-c2ccc(F)cc2)cc(C(F)(F)F)c1 | 6.60 |
| CN(Cc1nc2ccccc2c(=O)[nH]1)C(=O)Nc1cccc(C(F)(F)F)c1 | < 5.00 |
| CC(c1nc2ccccc2c(=O)n1-c1ccc(F)cc1)N(C)C(=O)Nc1cccc(C(F)(F)F)c1 (stereo not given) | 5.85 |
| O=C(NCc1nc2ccccc2c(=O)n1-c1ccc(F)cc1)Nc1cc(Cl)nc(Cl)c1 | 6.96 |
| CNC(C)c1nc2ccccc2c(=O)n1-c1ccc(F)cc1 (stereo not given) | < 5.00 |
